Results from patent publication US4088752A, “Oral composition for plaque and caries inhibition” (Gaba AG, priority 1974, dated 1978).

Key:
Type in all cases: in vivo, Osbourne-Mendel rats
[1] = system: Streptococcus mutans OMZ 176; assay: Rat caries experiment: smooth surface plaque, smooth surface caries and fissure caries after local application of aqueous test solutions; conditions: for Average number per rat of smooth surface plaque extent (PU) / Average number per rat of advanced dentinal fissure lesions (B) / Average number per rat of smooth surface carious units (E): means of 10 animals; for Average number per rat of smooth surface plaque extent (PU): standard error 0.29; for Average number per rat of advanced dentinal fissure lesions (B): standard error 0.94; for Average number per rat of smooth surface carious units (E): standard error 1.81; for cariostatic effects of sodium fluoride and sodium trimetaphosphate together: smooth surface caries, combination of the two
Protocol: To examine the effect of the compounds used according to the present invention, a series of animal experiments were carried out. In these tests an aqueous solution of the test compounds was applied locally to determine its action in inhibiting plaque and caries.
(§1) On day 13 the animals with their dams were transferred to stainless-steel cages and fed powdered Nafag diet. The animals were weaned when 22 days old and distributed at random among the treatments.
(§2) 0.1 ml of the test solutions were applied once daily during the whole 20-day experimental period in which diet 2000a and tap water were available ad libitum. On day 22 the animals were superinfected twice with Streptococcus mutans OMZ 176. Caries, molar surface dissolution rate and fluoride content were assessed acccording to routine procedures.

[2] = Weight gain of rats during the 20-day experimental period; conditions: means of 10 animals, standard error 3.4
Protocol: (§3) Groups of 10 Osbourne-Mendel rats, which are particularly suitable for caries-inhibition studies, were subjected to the following treatments:
as §1, §2

[3] = Fluoride content of maxillary molar surfaces; conditions: maxillary molars m1 + m2, 15 sec. in 2N hydrochloric acid under agitation; for Fluoride concentration, cumulated layers: first and second cumulated layers, standard error 12.4; for Fluoride concentration, second layer: standard error 10.4; for Fluoride concentration, first layer: standard error 16.6
Protocol: as §3, §2
Fluoride concentrations in the first, the second and the
first and second cumulated layers (ppm F) in the maxillary
molars (m1 + m2, 15 sec. in 2N hydrochloric acid under

[4] = Postmortal rat molar solubility (molar surface dissolution rate); conditions: per mand: m1 + m2 in 10 ml 0.025 M acetate buffer pH 4, 60 min., 37° C; standard error 5.7
Protocol: as §2

[5] = rats, 20-day experimental period

Compound	Average number per rat of smooth surface plaque extent (PU) ([1]; 20-day experimental period)	Average number per rat of advanced dentinal fissure lesions (B) ([1]; 20-day experimental period)	Average number per rat of smooth surface carious units (E) ([1]; 20-day experimental period)	Smooth surface caries (statement) [1, 5]	cariostatic effects of sodium fluoride and sodium trimetaphosphate together [1]	weight gains [2]	Fluoride concentration, cumulated layers [3]	Fluoride concentration, second layer [3]	Fluoride concentration, first layer [3]	Postmortal rat molar solubility [4]	other results
sodium fluoride [Treatment 3]	2.5	9.8	9.0	effective	additive	65 g					
O=P1([O-])OP(=O)([O-])OP(=O)([O-])O1.[Na+].[Na+].[Na+] [Treatment 4, sodium trimetaphosphate]	2.7	6.1	10.1	effective	additive	60 g					
N,N,N'-tris-(7-hydroxyethyl)-N'-octadecyl-1,3-diaminopropanepyrophosphate [Example 7]							143 ppm F	94 ppm F	187 ppm F		
N,N,N'-tris-(2-hydroxyethyl)-N'-octadecyl-1,3-diaminopropanemonohydrofluoride monoorthophosphate [Treatment 9]							74 ppm F	53 ppm F	92 ppm F	130 μgP	
N,N,N'-tris-(2-hydroxyethyl)-N'-octadecyl-1,3-diaminopropanediorthophosphate [Treatment 8]										121 μgP	
N-(2-hydroxyethyl)-2-heptadecen-9-yl-imidazoline orthophosphate [Example 6]											Smooth surface plaque, average extent (statement) [1, 5]: significantly lower (PF <0.001)
